The data set can be described thus: logP determination through HPLC (EEC directive 79/831 Annex V. A8, gradient method, acetonitrile/0.1% aqueous phosphoric acid). As to conditions: for chromatographic logP: HPLC. The data set is classed as physicochemical.
[1] abbreviates: Table 1, compounds of formula (I), HPLC gradient method, acetonitrile/0.1% aqueous phosphoric acid.

The logP is the decadic logarithm of the partition coefficient of the neutral form, usually between octanol and water. A higher logP goes with higher lipophilicity. For orientation: chromatographic logP means a lipophilicity value derived from retention on a column.

Under “Table 3, precursors of formula (IV)”, `Oc1nc2nc(C3CC3)nn2c(O)c1-c1ncncc1Cl` [Example 127] returned a logP of −0.07.

Molecule `CC(Nc1c(-c2ccncc2Cl)c(Cl)nc2nc(C3CC3)nn12)C(F)(F)F` (centres unmarked) [Example 42] returned a logP under setting [1] of 2.82.

Under setting [1], `C=C(C)CN(C)c1c(-c2ccsc2)c(Cl)nc2nc(C3CC3)nn12` [Example 75] had a logP of 3.81.

Under setting [1], `CC(Nc1c(-c2nc([N+](=O)[O-])ccc2Cl)c(Cl)nc2nc(C3CC3)nn12)C(C)(C)C` (centres unmarked) [Example 28] yielded a logP of 3.86.

For `CC(C)C(C)Nc1c(-c2ncncc2Cl)c(Cl)nc2nc(C3CC3)nn12` (centres unmarked) [Example 32], the logP under setting [1] is 3.12.

`CCCN(CC1CC1)c1c(-c2ccsc2)c(Cl)nc2nc(C3CC3)nn12` [Example 66] displayed a logP under setting [1] of 4.32.

Under setting [1], `C=C(C)CN(CC)c1c(-c2ccsc2)c(Cl)nc2nc(C3CC3)nn12` [Example 57] registered a logP of 4.13. The logP values of the last two molecules are within 0.2 log units of each other.

The molecule `CC(Nc1c(-c2ncncc2F)c(Cl)nc2nc(C3CC3)nn12)C(C)(C)C` (centres unmarked) [Example 103] yielded a logP under setting [1] of 3.18.

On to `CC(C)c1nc2nc(Cl)c(-c3ncncc3F)c(NC(C)C(F)(F)F)n2n1` (centres unmarked) [Example 102], for which the logP under setting [1] is given as 2.78.

`Clc1nc2nc(C3CC3)nn2c(N2CCCC2)c1-c1ccsc1` [Example 65] gave a logP under setting [1] of 3.18.

In the case of `CC(C)C(C)Nc1c(-c2ncncc2Cl)c(Cl)nc2nc(C3CC3)nn12` (centres unmarked) [Example 37], the logP under setting [1] came to 2.95.

Under setting [1], `CC(C)c1nc2nc(Cl)c(-c3ncc(C(F)(F)F)cc3Cl)c(NC(C)C(C)C)n2n1` (centres unmarked) [Example 112] had a logP of 4.32.

Take `CC(Nc1c(-c2ncncc2Cl)c(Cl)nc2nc(C3CC3)nn12)C(F)(F)F` (centres unmarked) [Example 38]: under setting [1], the logP worked out at 2.82.

`Clc1cc(-c2c(Cl)nc3nc(C4CC4)nn3c2NC2CCCC2)c(Cl)s1` [Example 70] had a logP under setting [1] of 4.82.

Molecule `Cc1nc2nc(Cl)c(-c3ncncc3F)c(NC(C)C(C)(C)C)n2n1` (centres unmarked) [Example 107] returned a logP under setting [1] of 2.54.

For `CC1CCN(c2c(-c3ncncc3Cl)c(Cl)nc3nc(C4CC4)nn23)CC1` [Example 94], under setting [1], the logP came out at 3.30.

`CC(C)C(C)Nc1c(-c2ccncc2Cl)c(Cl)nc2nc(C3CC3)nn12` (centres unmarked) [Example 43] came in with a logP under setting [1] of 3.09.

As to `CC1CCN(c2c(-c3ncncc3F)c(Cl)nc3nc(C4CC4)nn23)CC1` [Example 106], the logP under setting [1] is 3.02.

With `CC(C)C(C)Nc1c(-c2ncccc2[N+](=O)[O-])c(Cl)nc2nc(C3CC3)nn12` (centres unmarked) [Example 25], the logP under setting [1] turned out to be 2.82.

Under setting [1], `CC1CCCCN1c1c(-c2ccsc2)c(Cl)nc2nc(C3CC3)nn12` (centres unmarked) [Example 95] showed a lipophilicity (logP) of 4.07.

As for `CC1CN(c2c(-c3ccsc3)c(Cl)nc3nc(C4CC4)nn23)CC(C)O1` (centres unmarked) [Example 67], under setting [1], the logP was 3.26.

For `CC(C)C(C)Nc1c(-c2ncccc2C(F)(F)F)c(Cl)nc2nc(C3CC3)nn12` (centres unmarked) [Example 6], the log partition coefficient (logP) under setting [1] is 3.29.

In turn, `CC(C)C(C)Nc1c(-c2cc(Cl)sc2Cl)c(Cl)nc2nc(C3CC3)nn12` (centres unmarked) [Example 53] showed a log partition coefficient (logP) under setting [1] of 5.03.

In turn, `CC(C)c1nc2nc(Cl)c(-c3ncncc3F)c(NC(C)C(C)C)n2n1` (centres unmarked) [Example 101] registered a lipophilicity (logP) under setting [1] of 3.02.

`CC(C)C(C)Nc1c(-c2ncncc2Cl)c(Cl)nc2nc(C3CC3)nn12` (centres unmarked) [Example 15] came in with a logP under setting [1] of 2.94.

In the case of `Cc1nc2nc(Cl)c(-c3ncccc3[N+](=O)[O-])c(Cl)n2n1` [Example 120], the logP (Table 2, precursors of formula (II)) was 1.68.

`CC(Nc1c(-c2ccccn2)c(Cl)nc2nc(C3CC3)nn12)C(F)(F)F` (centres unmarked) [Example 24]: under setting [1], the logP came to 2.60.

`CC(C)Nc1c(-c2ccsc2)c(Cl)nc2nc(C3CC3)nn12` [Example 72] came in with a logP under setting [1] of 3.07.

Under setting [1], `CC(C)c1nc2nc(Cl)c(-c3ncncc3Cl)c(NC(C)C(F)(F)F)n2n1` (centres unmarked) [Example 29] returned a lipophilicity (logP) of 2.90.

In turn, `Cc1nc2nc(Cl)c(-c3ncncc3Cl)c(NC(C)C(C)C)n2n1` (centres unmarked) [Example 9] displayed a logP under setting [1] of 2.31.

As to `CC(C)c1nc2nc(Cl)c(-c3ncncc3F)c(NC(C)C(C)(C)C)n2n1` (centres unmarked) [Example 100], the logP under setting [1] was 3.47.

As to `CC(Nc1c(-c2cc(Cl)sc2Cl)c(Cl)nc2nc(C3CC3)nn12)C(F)(F)F` (centres unmarked) [Example 46], under setting [1], the logP stood at 4.32.

In the case of `Cc1nc2nc(Cl)c(-c3ncncc3Cl)c(Cl)n2n1` [Example 115, 5,7-dichloro-6-(5-chloro-4-pyrimidinyl)-2-methyl[1,2,4]-triazolo[1,5-a]pyrimidine], the chromatographic logP was 1.58.

Under setting [1], `CC(Nc1c(-c2ccsc2)c(Cl)nc2nc(C3CC3)nn12)C(F)(F)F` (centres unmarked) [Example 59] had a logP of 3.29.

For `CC(C)CC(C)Nc1c(-c2cc(Cl)sc2Cl)c(Cl)nc2nc(C3CC3)nn12` (centres unmarked) [Example 68], the log partition coefficient (logP) under setting [1] came to 5.42.

The molecule `Cc1nc2nc(Cl)c(-c3ncccc3C(F)(F)F)c(NC(C)C(C)C)n2n1` (centres unmarked) [Example 12] gave a log partition coefficient (logP) under setting [1] of 2.68.

Turning to `Cc1nc2nc(Cl)c(-c3ncncc3F)c(NC(C)C(C)C)n2n1` (centres unmarked) [Example 108], the logP under setting [1] was 2.21.

In the case of `Oc1nc2nc(C3CC3)nn2c(O)c1-c1ncccc1C(F)(F)F` [Example 124, 6-(3-trifluoromethyl-pyridin-2-yl)-2-cyclopropyl[1,2,4]triazolo[1,5-a]-pyrimidin-5,7-diol], the chromatographic logP is 0.47.

Consider `Clc1cc(-c2c(Cl)nc3nc(C4CC4)nn3c2N2CCOCC2)c(Cl)s1` [Example 89], for which the logP under setting [1] is on record as 3.68.

`FC1(F)CCN(c2c(-c3ccsc3)c(Cl)nc3nc(C4CC4)nn23)CC1` [Example 56] displayed a lipophilicity (logP) under setting [1] of 3.41.

Consider `Cc1nc2nc(Cl)c(-c3ncccc3C)c(N3CCC(C)CC3)n2n1` [Example 10], for which the logP under setting [1] is on record as 3.09.

`CC(C)c1nc2nc(Cl)c(-c3ncncc3Cl)c(NCC(F)(F)F)n2n1` [Example 31] gave a logP under setting [1] of 2.56.

Take `Clc1nc2nc(C3CC3)nn2c(NC2CCCC2)c1-c1ccsc1` [Example 74]: the logP under setting [1] worked out at 3.63.

As to `FC(F)(F)c1cccnc1-c1c(Cl)nc2nc(C3CC3)nn2c1Cl` [Example 114], the chromatographic logP was 2.73.

On to `FC1(F)CCN(c2c(-c3ncccc3C(F)(F)F)c(Cl)nc3nc(C4CC4)nn23)CC1` [Example 4], for which the logP under setting [1] is recorded as 3.20.

Molecule `CC(Nc1c(-c2ncccc2C(F)(F)F)c(Cl)nc2nc(C3CC3)nn12)C(F)(F)F` (centres unmarked) [Example 7] displayed a logP under setting [1] of 3.01.

For the molecule `FC1(F)CCN(c2c(-c3ncncc3Cl)c(Cl)nc3nc(C4CC4)nn23)CC1` [Example 41], the logP under setting [1] turned out to be 2.75.
